Reference: PMC5777755, “Functional characterization of a unique cytochrome P450 in Toxoplasma gondii” (Oncotarget, 2017)

Molecular target: T1, Tg-P450 (Toxoplasma gondii, UniProt S8EQL7)
T1 construct: gene TGME49_315770; P450 knockout as negative control
Assay: in situ fluorescence microscopy of resorufin formation (rhodamine filter), knockout control
Format: cell-based
Settings: 1 uM, 24 h, 37 °C; live tachyzoites in HepG2 cells; strain given as Tg-P450 OE in text, GT1 in figure legend

T1 sequence (S8EQL7 entry or part of it): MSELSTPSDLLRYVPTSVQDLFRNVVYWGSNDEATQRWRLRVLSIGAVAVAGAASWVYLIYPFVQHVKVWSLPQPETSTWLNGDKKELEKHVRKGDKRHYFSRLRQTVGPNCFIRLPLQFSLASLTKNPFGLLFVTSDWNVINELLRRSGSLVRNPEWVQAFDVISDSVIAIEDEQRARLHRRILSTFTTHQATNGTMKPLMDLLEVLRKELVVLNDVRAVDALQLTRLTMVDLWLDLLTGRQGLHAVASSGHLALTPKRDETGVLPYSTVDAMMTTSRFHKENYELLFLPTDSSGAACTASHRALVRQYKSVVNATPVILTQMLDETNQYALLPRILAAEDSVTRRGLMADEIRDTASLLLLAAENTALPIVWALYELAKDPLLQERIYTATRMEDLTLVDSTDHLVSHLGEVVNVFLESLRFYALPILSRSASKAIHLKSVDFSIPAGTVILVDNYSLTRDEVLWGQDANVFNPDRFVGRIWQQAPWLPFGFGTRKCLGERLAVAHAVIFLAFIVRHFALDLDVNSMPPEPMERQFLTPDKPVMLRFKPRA

Structure (SMILES) | in situ fluorescence microscopy of resorufin formation (rhodamine filter), knock
CCCCCOc1ccc2nc3ccc(=O)cc-3oc2c1 [PR, pentoxyresorufin] | a weak specific fluorescence signal was visible in the Tg-P450 OE strain
O=c1ccc2nc3ccc(OCc4ccccc4)cc3oc-2c1 [BR, benzoxyresorufin] | After treating the P450 knockout parasites with PR and BR, no fluorescence was observed
